Results taken from patent EP0726261A1, “Herbidical 1,2,4 thiadiazoles” (American Cyanamid Company, priority 1995, dated 1996).

Key:
Type in all cases: in vivo
Avena fatua [1] = assay: Herbicidal activity, preemergence test (Example 66); parameters: key: A rating of 0 indicates growth as untreated control; a rating of 9 indicates death; details: pre; 1000 g/ha; assessed visually twenty days after spraying
Method: (§1) To evaluate their herbicidal activity, compounds according to the invention are tested using a representative range of plants: ZEAMX Zea mays ORYSA Oryza sativa GLXMA Glycine max BEAVA Beta vulgaris LIUUT Linum usitatissimum AVEFA Avena fatua ECHCG Echinochloa crus-galli SINAL Sinapsis alba
(§2) The tests fall into two categories, preemergence and postemergence. The preemergence tests involve spraying a liquid formulation of the compound onto the soil in which the seeds of the plant species mentioned above have recently been sown. The postemergence tests involve spraying a liquid formulation of the compound onto seedling plants of the above species.
(§3) The soil used in the tests is a prepared horticultural loam.
(§4) The formulations used in the tests are prepared from solutions of the test compounds in acetone containing 0.4% by weight of an alkylphenol/ethylene oxide condensate available under the trademark TRITON X-155. These acetone solutions are diluted with water and the resulting formulations applied at dosage levels corresponding to 1000 g of active material per hectare in a volume equivalent to 900 litres per hectare.
(§5) In the preemergence tests, untreated sown soil, and in the postemergence tests, untreated soil bearing seedling plants, are used as controls.
(§6) The herbicidal effects of the test compounds are assessed visually twenty days after spraying the foliage and the soil and are recorded on a 0-9 scale. A rating of 0 indicates growth as untreated control, a rating of 9 indicates death. An increase of 1 unit on the linear scale approximates to an 11% increase in the level of effect.

Beta vulgaris [2] = assay: as above; parameters: key: A rating of 0 indicates growth as untreated control; a rating of 9 indicates death; details: pre; 1000 g/ha; assessed visually twenty days after spraying
Method: as §1, §2, §3, §4, §5, §6

Echinochloa crus-galli [3] = assay: as above; parameters: key: A rating of 0 indicates growth as untreated control; a rating of 9 indicates death; details: pre; 1000 g/ha; assessed visually twenty days after spraying
Method: as §1, §2, §3, §4, §5, §6

Glycine max [4] = assay: as above; parameters: key: A rating of 0 indicates growth as untreated control; a rating of 9 indicates death; details: pre; 1000 g/ha; assessed visually twenty days after spraying
Method: as §1, §2, §3, §4, §5, §6

Linum usitatissimum [5] = assay: as above; parameters: key: A rating of 0 indicates growth as untreated control; a rating of 9 indicates death; details: pre; 1000 g/ha; assessed visually twenty days after spraying
Method: as §1, §2, §3, §4, §5, §6

Oryza sativa [6] = assay: as above; parameters: key: A rating of 0 indicates growth as untreated control; a rating of 9 indicates death; details: pre; 1000 g/ha; assessed visually twenty days after spraying
Method: as §1, §2, §3, §4, §5, §6

Sinapsis alba [7] = assay: as above; parameters: key: A rating of 0 indicates growth as untreated control; a rating of 9 indicates death; details: pre; 1000 g/ha; assessed visually twenty days after spraying
Method: as §1, §2, §3, §4, §5, §6

Zea mays [8] = assay: as above; parameters: key: A rating of 0 indicates growth as untreated control; a rating of 9 indicates death; details: pre; 1000 g/ha; assessed visually twenty days after spraying
Method: as §1, §2, §3, §4, §5, §6

Glycine max [9] = assay: Herbicidal activity, postemergence test (Example 66); details: post; 1000 g/ha; assessed visually twenty days after spraying
Method: as §1, §2, §3, §4, §5, §6

Avena fatua [10] = assay: as above; parameters: key: A rating of 0 indicates growth as untreated control; a rating of 9 indicates death; details: post; 1000 g/ha; assessed visually twenty days after spraying
Method: as §1, §2, §3, §4, §5, §6

Beta vulgaris [11] = assay: as above; parameters: key: A rating of 0 indicates growth as untreated control; a rating of 9 indicates death; details: post; 1000 g/ha; assessed visually twenty days after spraying
Method: as §1, §2, §3, §4, §5, §6

Echinochloa crus-galli [12] = assay: as above; parameters: key: A rating of 0 indicates growth as untreated control; a rating of 9 indicates death; details: post; 1000 g/ha; assessed visually twenty days after spraying
Method: as §1, §2, §3, §4, §5, §6

Linum usitatissimum [13] = assay: as above; parameters: key: A rating of 0 indicates growth as untreated control; a rating of 9 indicates death; details: post; 1000 g/ha; assessed visually twenty days after spraying
Method: as §1, §2, §3, §4, §5, §6

Oryza sativa [14] = assay: as above; parameters: key: A rating of 0 indicates growth as untreated control; a rating of 9 indicates death; details: post; 1000 g/ha; assessed visually twenty days after spraying
Method: as §1, §2, §3, §4, §5, §6

Sinapsis alba [15] = assay: as above; parameters: key: A rating of 0 indicates growth as untreated control; a rating of 9 indicates death; details: post; 1000 g/ha; assessed visually twenty days after spraying
Method: as §1, §2, §3, §4, §5, §6

Zea mays [16] = assay: as above; parameters: key: A rating of 0 indicates growth as untreated control; a rating of 9 indicates death; details: post; 1000 g/ha; assessed visually twenty days after spraying
Method: as §1, §2, §3, §4, §5, §6

## CC(C)c1nsc(C(=O)NC(C)c2cccs2)n1 (racemic) [Example 1, (R/S)-3-Isopropyl-[1,2,4]thiadiazole-5-carboxylic acid, [1-(2-thienyl)ethyl]amide]
Avena fatua [1]
  herbicidal effects on a 0-9 scale, AVEFA: 2
Beta vulgaris [2]
  herbicidal effects on a 0-9 scale, BEAVA: 7
Echinochloa crus-galli [3]
  herbicidal effects on a 0-9 scale, ECHCG: 5
Glycine max [4]
  herbicidal effects on a 0-9 scale, GLXMA: 0
Linum usitatissimum [5]
  herbicidal effects on a 0-9 scale, LIUUT: 2
Oryza sativa [6]
  herbicidal effects on a 0-9 scale, ORYSA: 0
Sinapsis alba [7]
  herbicidal effects on a 0-9 scale, SINAL: 7
Zea mays [8]
  herbicidal effects on a 0-9 scale, ZEAMX: 0
Glycine max [9]
  herbicidal effects on a 0-9 scale, GLXMA: 6
Avena fatua [10]
  herbicidal effects on a 0-9 scale, AVEFA: 5
Beta vulgaris [11]
  herbicidal effects on a 0-9 scale, BEAVA: 9
Echinochloa crus-galli [12]
  herbicidal effects on a 0-9 scale, ECHCG: 9
Linum usitatissimum [13]
  herbicidal effects on a 0-9 scale, LIUUT: 9
Oryza sativa [14]
  herbicidal effects on a 0-9 scale, ORYSA: 0
Sinapsis alba [15]
  herbicidal effects on a 0-9 scale, SINAL: 9
Zea mays [16]
  herbicidal effects on a 0-9 scale, ZEAMX: 0

## CC(NC(=O)c1nc(-c2ccccc2)ns1)c1cccs1 (racemic) [Example 4, (R/S)-3-Phenyl-[1,2,4]thiadiazole-5-carboxylic acid, [1-(2-thienyl)ethyl]amide]
Avena fatua [1]
  herbicidal effects on a 0-9 scale, AVEFA: 0
Beta vulgaris [2]
  herbicidal effects on a 0-9 scale, BEAVA: 0
Echinochloa crus-galli [3]
  herbicidal effects on a 0-9 scale, ECHCG: 0
Glycine max [4]
  herbicidal effects on a 0-9 scale, GLXMA: 0
Linum usitatissimum [5]
  herbicidal effects on a 0-9 scale, LIUUT: 0
Oryza sativa [6]
  herbicidal effects on a 0-9 scale, ORYSA: 0
Sinapsis alba [7]
  herbicidal effects on a 0-9 scale, SINAL: 0
Zea mays [8]
  herbicidal effects on a 0-9 scale, ZEAMX: 0
Glycine max [9]
  herbicidal effects on a 0-9 scale, GLXMA: 5
Avena fatua [10]
  herbicidal effects on a 0-9 scale, AVEFA: 5
Beta vulgaris [11]
  herbicidal effects on a 0-9 scale, BEAVA: 8
Echinochloa crus-galli [12]
  herbicidal effects on a 0-9 scale, ECHCG: 8
Linum usitatissimum [13]
  herbicidal effects on a 0-9 scale, LIUUT: 7
Oryza sativa [14]
  herbicidal effects on a 0-9 scale, ORYSA: 0
Sinapsis alba [15]
  herbicidal effects on a 0-9 scale, SINAL: 8
Zea mays [16]
  herbicidal effects on a 0-9 scale, ZEAMX: 0

## CC(NC(=O)c1nc(C(C)(C)C)ns1)c1cccs1 (racemic) [Example 6, (R/S)-3-tert-Butyl-[1,2,4]thiadiazole-5-carboxylic acid, [1-(2-thienyl)ethyl]amide]
Avena fatua [1]
  herbicidal effects on a 0-9 scale, AVEFA: 0
Beta vulgaris [2]
  herbicidal effects on a 0-9 scale, BEAVA: 9
Echinochloa crus-galli [3]
  herbicidal effects on a 0-9 scale, ECHCG: 0
Glycine max [4]
  herbicidal effects on a 0-9 scale, GLXMA: 0
Linum usitatissimum [5]
  herbicidal effects on a 0-9 scale, LIUUT: 3
Oryza sativa [6]
  herbicidal effects on a 0-9 scale, ORYSA: 0
Sinapsis alba [7]
  herbicidal effects on a 0-9 scale, SINAL: 7
Zea mays [8]
  herbicidal effects on a 0-9 scale, ZEAMX: 0
Glycine max [9]
  herbicidal effects on a 0-9 scale, GLXMA: 7
Avena fatua [10]
  herbicidal effects on a 0-9 scale, AVEFA: 7
Beta vulgaris [11]
  herbicidal effects on a 0-9 scale, BEAVA: 9
Echinochloa crus-galli [12]
  herbicidal effects on a 0-9 scale, ECHCG: 9
Linum usitatissimum [13]
  herbicidal effects on a 0-9 scale, LIUUT: 9
Oryza sativa [14]
  herbicidal effects on a 0-9 scale, ORYSA: 2
Sinapsis alba [15]
  herbicidal effects on a 0-9 scale, SINAL: 9
Zea mays [16]
  herbicidal effects on a 0-9 scale, ZEAMX: 0
